Source: ChEMBL document CHEMBL1149889, “ent-Kaurane Diterpenoids from Isodon nervosus” (J Nat Prod, 2008)
pIC50: −log10 of the molar value.

How the values were obtained:
Assay type in all cases: functional, cell-based
A549 = test: Cytotoxicity against human A549 cells
K562 = test: Cytotoxicity against human K562 cells
HepG2 = test: Cytotoxicity against human HepG2 cells

Structure (SMILES) | pIC50 (A549) | pIC50 (K562) | pIC50 (HepG2)
C=C1[C@@H]2C[C@H](OC(C)=O)[C@H]3[C@@]4(C)[C@H]([C@@H](O)[C@H](OC(C)=O)[C@]3(C2)[C@@H]1O)C(C)(C)[C@@H](O)C[C@@H]4O [NERVONIN I] | < 4.00 | < 4.00 | < 4.00
C=C1[C@@H]2C[C@H](OC(C)=O)[C@H]3[C@]4(C)[C@@H](OC(C)=O)C[C@H](O)C(C)(C)[C@H]4C(=O)[C@H](O)[C@]3(C2)[C@@H]1OC(C)=O [ADENANTHIN K] | < 4.00 | < 4.00 | < 4.00
C=C1C(=O)[C@]23C[C@H]1C[C@H](OC(C)=O)[C@H]2[C@]1(C)[C@@H](OC(C)=O)C[C@H](O)C(C)(C)[C@H]1C(=O)[C@@H]3OC(C)=O [ADENANTHIN] | 5.09 | 5.98 | 6.49
C=C1[C@@H]2C[C@H](O)[C@H]3[C@]4(C)[C@@H](OC(C)=O)C[C@H](O)C(C)(C)[C@H]4[C@@H](OC(C)=O)[C@H](OC(C)=O)[C@]3(C2)[C@@H]1O [NERVONIN G] | < 4.00 | < 4.00 | < 4.00
C=C1C(=O)[C@]23C[C@H]1C[C@H](OC(C)=O)[C@H]2[C@]1(C)[C@@H](OC(C)=O)C[C@H](O)C(C)(C)[C@H]1[C@@H](O)[C@@H]3OC(C)=O [WEISIENSIN A] | 5.73 | 5.39 | 5.84
C=C1[C@@H]2C[C@H](OC(C)=O)[C@H]3[C@]4(C)[C@@H](OC(C)=O)C[C@H](O)[C@]5(C)C[C@@](O)([C@H]54)[C@H](OC(C)=O)[C@]3(C2)[C@@H]1OC(C)=O [NERVONIN A] | < 4.00 | < 4.00 | < 4.00
C=C1[C@@H]2C[C@H](OC(C)=O)[C@H]3[C@]4(C)[C@@H](OC(C)=O)C[C@H](O)C(C)(C)[C@H]4C(=O)[C@H](OC(C)=O)[C@]3(C2)[C@@H]1O [ADENANTHIN J] | < 4.00 | < 4.00 | < 4.00
C=C1[C@@H]2C[C@H](O)[C@H]3[C@@]4(C)[C@H](C[C@H](OC(C)=O)[C@]3(C2)[C@@H]1O)C(C)(C)[C@@H](OC(C)=O)C[C@@H]4O [ADENANTHIN E] | < 4.00 | < 4.00 | < 4.00
C=C1C(=O)[C@]23C[C@H]1C[C@H](OC(C)=O)[C@H]2[C@]1(C)[C@@H](OC(C)=O)C[C@H](O)C(C)(C)[C@H]1[C@@H](OC(C)=O)[C@@H]3OC(C)=O [CALCICOLIN A] | 4.91 | 5.62 | 6.29
C=C1[C@@H]2C[C@H](OC(C)=O)[C@H]3[C@]4(C)[C@@H](OC(C)=O)C[C@H](O)C(C)(C)[C@H]4C(=O)[C@H](OC(C)=O)[C@]3(C2)[C@@H]1OC(C)=O [NERVOSANIN] | < 4.00 | < 4.00 | < 4.00
C=C1[C@@H]2C[C@H](OC(C)=O)[C@H]3[C@]4(C)[C@@H](OC(C)=O)C[C@H](O)C(C)(C)[C@H]4[C@H](O)[C@H](OC(C)=O)[C@]3(C2)[C@@H]1O [FORRESTIN C] | < 4.00 | < 4.00 | < 4.00
C=C1C(=O)[C@]23C[C@H]1C[C@H](OC(C)=O)[C@H]2[C@@]1(C)[C@H]([C@@H](OC(C)=O)[C@@H]3OC(C)=O)C(C)(C)[C@@H](O)C[C@@H]1O [NERVONIN B] | 5.82 | 5.93 | 5.94
C=C1[C@@H]2C[C@H](OC(C)=O)[C@H]3[C@@]4(C)[C@H](C(=O)[C@H](OC(C)=O)[C@]3(C2)[C@@H]1OC(C)=O)C(C)(C)[C@@H](O)C[C@@H]4O [NERVONIN C] | < 4.00 | < 4.00 | < 4.00
C=C1[C@@H]2C[C@H](OC(C)=O)[C@H]3[C@@]4(C)[C@H](C[C@H](OC(C)=O)[C@]3(C2)[C@@H]1O)C(C)(C)[C@@H](O)C[C@@H]4O [NERVONIN H] | < 4.00 | < 4.00 | < 4.00
C=C1[C@@H]2C[C@H](O)[C@H]3[C@@]4(C)[C@H]([C@@H](O)[C@H](OC(C)=O)[C@]3(C2)[C@@H]1O)C(C)(C)[C@@H](OC(C)=O)C[C@@H]4O [FORRESTIN B] | < 4.00 | < 4.00 | < 4.00
C=C1[C@@H]2C[C@H](OC(C)=O)[C@H]3[C@]4(C)[C@@H](OC(C)=O)C[C@H](O)C(C)(C)[C@H]4[C@@H](O)[C@H](OC(C)=O)[C@]3(C2)[C@@H]1OC(C)=O [NERVONIN D] | < 4.00 | < 4.00 | < 4.00
C=C1[C@@H]2C[C@H](OC(C)=O)[C@H]3[C@]4(C)[C@@H](OC(C)=O)C[C@H](O)C(C)(C)[C@H]4C(=O)[C@H](O)[C@]3(C2)[C@@H]1O [NERVONIN E] | < 4.00 | < 4.00 | < 4.00
C=C1[C@@H]2C[C@H](O)[C@H]3[C@]4(C)[C@@H](OC(C)=O)C[C@H](O)C(C)(C)[C@H]4[C@@H](O)[C@H](OC(C)=O)[C@]3(C2)[C@@H]1O [NERVONIN F] | < 4.00 | < 4.00 | < 4.00
C=C1C(=O)[C@]23C[C@H]1C[C@H](OC(C)=O)[C@H]2[C@@]1(C)[C@H](C(=O)[C@@H]3OC(C)=O)C(C)(C)[C@@H](O)C[C@@H]1O [CALCICOLIN B] | 5.07 | 5.81 | 6.28
C=C1[C@@H]2C[C@H](O)[C@@H]3[C@@](CC(=O)[C@@H]4C(C)(C)[C@@H](O)C[C@H](O)[C@]43C)(C2)[C@@H]1OC(C)=O [NERVONIN J] | < 4.00 | < 4.00 | < 4.00
